The values that follow come from patent US6444809B1, “Therapeutic heterocycles” (Zeneca Limited, priority 1993, dated 2002).

Broadly, the Ki is a measure of affinity in units of concentration, obtained from inhibition or displacement. Higher therefore signals a looser hold on the target. For orientation: Kb means the equilibrium dissociation constant of an antagonist, usually derived from a functional assay.

Where a name gives a salt, the structure may show the parent alone.

The target in assay [1] is T1, human NK2 receptor (Homo sapiens, UniProt P21452).
T1 construct: expressed in transfected cells
T1 sequence (P21452 1-398): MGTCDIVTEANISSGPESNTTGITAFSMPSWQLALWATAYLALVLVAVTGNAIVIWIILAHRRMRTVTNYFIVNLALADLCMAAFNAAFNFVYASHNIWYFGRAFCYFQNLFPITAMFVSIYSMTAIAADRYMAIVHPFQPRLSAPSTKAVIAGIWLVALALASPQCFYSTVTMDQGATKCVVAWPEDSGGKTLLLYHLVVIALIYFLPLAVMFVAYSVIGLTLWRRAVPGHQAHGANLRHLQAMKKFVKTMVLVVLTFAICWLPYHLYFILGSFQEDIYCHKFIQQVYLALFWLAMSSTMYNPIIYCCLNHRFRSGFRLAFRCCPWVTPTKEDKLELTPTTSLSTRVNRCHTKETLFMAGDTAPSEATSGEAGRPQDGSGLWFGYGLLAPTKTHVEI
As to the kind of experiment: Neurokinin A (NKA) receptor-binding assay (Test A), 3H-NKA binding to MEL cell membranes. The source says:
Neurokinin A (NKA) Receptor-binding Assay (Test A)
Heterologous protein expression in Mouse Erythroleukemia (MEL) cells uses the human globin locus control region (LCR) (F. Grosveld et al., Cell (1987) 51, 975-985). The cDNAs are inserted between the human beta-globin promoter and the second intron of the human beta-globin gene, and this expression cassette is then placed downstream of the LCR and transfected into MEL cells (M. Needham et al., Nucl. Acids Res. (1992) 20, 997-1003). Human NK2 receptor cDNA (A. Graham et al., Biochem. Biophys. Res. Commun. (1991) 177, 8-16) was isolated from human lung RNA by polymerase chain reaction and DNA sequenced. […] These were annealed and ligated to the hNK2R fragment by standard methods. Following cleavage with Hind III, the resulting fragment was cloned into the Hind III and Bam HI sites in the polylinker of the shuttle vector pMEG3. […] Directly after transfection, cells were diluted in culture medium to 10^4 and 10^5 cell per mL and 1 mL aliquots transferred to each well of a 24-well plate.
G418 was added to a concentration of 1 mg/mL 24 hours after the transfection to select for stable transfectants. […]
Nonspecific binding is routinely defined with 1 μM NKA. […] The filters are deposited in scintillation vials and read in a Beckman LS 6000LL Scintillation Counter.

The test system of assay [2] is guinea pig trachea. As to the kind of experiment: Guinea pig assay (Test B), antagonism of agonist (NKA or [β-Ala8]-NKA(4-10)) contraction of tracheal rings. Type of assay: cell-based. As for the experimental part:
Guinea Pig Assay (Test B)
In the test described below either NKA or [β-Ala^8]-NKA(4-10) is used as an agonist. The chosen agonist is refered to as AG throughout the description.
Male guinea pigs are killed by a sharp blow to the back of the head. The trachea are removed, trimmed of excess tissue and divided into two segments. […] Initial tension placed on each tissue is 1 g, which is maintained throughout a 0.5 to 1.5 hour equilibration period before addition of other drugs. Contractile responses are measured on a Grass polygraph via Grass FT-03 force transducers.
Tissues are challenged repetitively with a single concentration of AG (10 nM) with intervening 30 min periods with washing to allow the tension to return to baseline levels. […] Percent inhibition is determined when a Compound produces a statistically significant (p<0.05) reduction of the contraction and is calculated using the second contractile response as 100%.
Potencies of selected Compounds are evaluated by calculating apparent dissociation constants (KB) for each concentration tested using the standard equation: […]
where dose ratio=antilog[(AG −log molar EC50 without Compound) −(AG−log molar EC50 with Compound)]. The KB values may be converted to the negative logarithms and expressed as −log molar KB (i.e. PKB). […] The EC50 values are converted to the negative logarithms and expressed as −log molar EC50. […]

As to `CN(CC(CCN1CCC(N2CCOC2=O)CC1)c1ccc(Cl)c(Cl)c1)C(=O)c1ccccc1.Cl` (stereo not shown) [Example 1, N-[2-(3,4-Dichlorophenyl)-4-[4-(2-oxo-1,3-oxazolidin-3-yl)piperidino]butyl]-N-methylbenzamide hydrochoride], the “NK2 antagonist activity in the in vitro screen (Test A)” value in assay [1] (result in words) is reported as “potent NK2 antagonist”. In addition, the “NK2 antagonist activity in the functional assay (Test B)” value in assay [2] (result in words) is reported as “potent NK2 antagonist”.
Turning to `CN(C[C@@H](CCN1CCC(N2CCCOC2=O)CC1)c1ccc(Cl)c(Cl)c1)C(=O)c1ccccc1` [Example 2, (S)-N-[2-(3,4-Dichlorophenyl)-4-(2-oxoperhydro-1,3-oxa-zin-3-yl)piperidino]butyl]-N-methylbenzamide hydrochloride], the Ki in assay [1] (Test A, typically found) was determined as 4.1 nM. Moreover, the Kb in assay [2] (Cavia porcellus, Test B, -log molar apparent dissociation constant KB) was 2 nM.
